Measurements published in patent US20250282802A1, “P[…] AND METHODS” (priority 2020, published 2025).
Read-outs that look alike come from different tables or passages of the source.

Assays:
[1] = test system: Escherichia coli WM6242; test: Disk diffusion assay with phosphonate-specific bioassay strain E. coli WM6242; assay type: cell-based
Description: Antibacterial bioassays. Susceptibility testing for the ESKAPE pathogens and Salmonella enterica LT2 was performed using a Kirby-Bauer method as outlined by the Clinical and Laboratory Standards Institute (CLSI). For rich media bioassays, Mueller Hinton Broth 2 (MH-2, Sigma-Aldrich, 90922) was used for all strains except 1% BHI was supplemented for Enterococcus faecalis ATCC 19433. For minimal media bioassays, glucose-MOPS minimal medium was used. Briefly, overnight bacterial cultures were sub-cultured and inoculated into 5 mL top agar (0.7% agar) for final concentration of 5×10^5 CFU/mL. Then, 20 μL of a compound 2-fold dilution series (200, 100, 50, 25, 12.5, 6.25 μM in water) was spotted on 6 mm diameter blank paper discs (BD BBL™ 231039). Control discs received 20 μL of 50 mg/mL kanamycin. Plates were incubated at 35° C. for 20-24 hours. […] Sensitivity of the IPTG-inducible phosphonate uptake strain WM6242 to pantaphos was tested using a disk diffusion assay. Plates containing growth medium were overlayed with 5 mL of top agar (0.7% agar) inoculated with 100 μL (OD600=0.8) of the phosphonate-specific E. coli indicator strain (WM6242) with or without addition of 1 mM IPTG. WM6242 is engineered with an IPTG-inducible, non-specific phosphonate uptake system (phnCDE). After the seeded overlay solidified, 6 mm paper disks were spotted with 10 μL of a dilution series (200, 100, 50, 25, 12.5, 6.25 μM in water) of pantaphos and applied to the plates that were then incubated at 37° C. for 24 hours. Phosphonate-specific activity was queried by comparing sensitivity to that of 200 μM kanamycin and 200 μM fosfomycin.

[2] = test system: Candida albicans SN250; test: Fungicidal bioassay (MIC), Candida albicans; assay type: cell-based
Description: Bacteria, plasmids and growth conditions. Bacterial strains, plasmids and primers used in this study are described in Table 3 and 4. General chemical and molecular biology reagents were purchased from Sigma-Aldrich or New England Biolabs. Phosphinothricin (glufosinate) was purchased from GoldBio (CAS #77182-82-2). Standard bacterial growth media were prepared as described (Current Protocols in Molecular Biology 2019, 125:e81, e82, e83). E. coli strains were typically grown at 37° C.; P. ananatis strains were typically grown at 30° C. Phosphonate induction media (PIM) was prepared as follows: 8.37 g/L MOPS, 0.72 g/L Tricine, 0.58 g/L NaCl, 0.51 g/L NH4Cl, 1.6 g/L KOH, 0.1 g/L MgCl2·6H2O, 0.05 g/L K2SO4, 0.2 g/L K2HIPO4 were dissolved H2O and steam sterilized for 20 min at 121° C. […]
Fungicidal bioassays. […] Minimum Inhibitory Concentration (MIC) was determined visually by finding the concentration of compound at which there was no visual difference between that concentration and the uninoculated media control.

Structure (SMILES): O=C(O)/C=C(\C(=O)O)C(O)P(=O)(O)O (stereo not shown) [pantaphos, 2-(hydroxy(phosphono)methyl)maleate]
- MIC ([1]; +IPTG, Mueller-Hinton 2 medium, read-out: MIC, Rich medium): >200 µM
- MIC ([1]; +IPTG, glucose-MOPS minimal medium, read-out: MIC, Minimal medium): >200 µM
- MIC ([1]; Escherichia coli, WM6242, −IPTG, Mueller-Hinton 2 medium, read-out: MIC, Rich medium): > 200 µM
- MIC ([1]; Escherichia coli, WM6242, −IPTG, glucose-MOPS minimal medium, read-out: MIC, Minimal medium): > 200 µM
- sensitivity of the strain to pantaphos, in words ([1]; with or without IPTG induction): insensitive
- MIC ([2]; Candida albicans, SN250, RPMI 1640 medium, 48 hrs growth, CLSI, read-out: MIC, Rich medium): > 125 µM
- effect on the growth of fungi, in words ([2]; rich or minimal media): no effect on the growth
